Molecular target: C5a anaphylatoxin chemotactic receptor 1 (Homo sapiens) (UniProt P21730)
Experiment: Potency as the maximal lysosomal myeloperoxidase (MPO) release in PMNL assay

Sequence of C5a anaphylatoxin chemotactic receptor 1 (Homo sapiens) (P21730 whole entry, looked up): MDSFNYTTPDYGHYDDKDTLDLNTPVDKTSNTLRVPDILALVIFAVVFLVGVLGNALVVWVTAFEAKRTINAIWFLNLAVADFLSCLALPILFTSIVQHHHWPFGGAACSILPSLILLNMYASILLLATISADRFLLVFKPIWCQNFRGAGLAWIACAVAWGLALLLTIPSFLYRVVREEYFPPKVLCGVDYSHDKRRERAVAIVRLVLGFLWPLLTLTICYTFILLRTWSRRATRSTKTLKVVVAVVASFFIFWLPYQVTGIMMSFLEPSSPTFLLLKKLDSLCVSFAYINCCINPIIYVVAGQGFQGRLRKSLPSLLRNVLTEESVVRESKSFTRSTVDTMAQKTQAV

Compound: CSCC[C@H](NC(=O)[C@H](CC(=O)O)NC(=O)[C@H](CCCCN)NC(=O)[C@@H](N)Cc1cccs1)C(=O)N[C@@H](CCC(N)=O)C(=O)N[C@@H](CC(C)C)C(=O)NCC(=O)N[C@@H](CCCNC(=N)N)C(=O)O
- EC50: 200 µM

Compound: H-LRANISFKDMQLGR-OH
- EC50: 60 µM

Compound: Ac-FKDMQLGR-OH
- EC50: 35 µM

Reference: BindingDB's records for doi:10.1021/jm00080a030 (Abbott Laboratories, 1992)
